Results on 11 compounds are retold here after ChEMBL document CHEMBL1201862, “PubChem BioAssay data set” (2004).

Some test systems named below: SW-620; TK-10; CAKI-1; HOP-62; COLO 205; MCF7; NCI-H23; IGROV-1; UACC-257; NCI-H460; OVCAR-8; M14; LOX IMVI; HL-60; ACHN; NCI/ADR-RES; SF-295; DU-145; SK-MEL-2.
Holding throughout (experiment): inhibition of tumour cell growth, NCI panel, 48 h

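1) Cells in 96-well plates. 2) Compound, 48 h, 5 concentrations. 3) Linear interpolation between surrounding doses. 4) Unreached endpoint = highest concentration. Abbreviation: GI50, concentration required for 50% inhibition of growth.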 Activity calls are given as the source filed them. Cut-off read from the data, not from the text of the source: active = GI50 up to about 1.1 µM and inactive = higher. Where only a bound is given, the exact number is not on record here.

As for `Cn1c(=O)c2nc(SCc3ccccn3)[nH]c2n(C)c1=S`, the GI50 in the assay on SW-620 is > 100 µM (inactive); with TK-10, 86.7 µM (inactive); in the assay on CAKI-1 it was > 100 µM (inactive); with HOP-62 it was 44 µM (inactive); in the assay with COLO 205, > 100 µM (inactive); in the assay with MCF7 it was > 100 µM (inactive). The GI50 with NCI-H23 is > 100 µM (inactive); with IGROV-1, > 100 µM (inactive); in the assay on UACC-257, > 100 µM (inactive); with NCI-H460 it was > 100 µM (inactive); with OVCAR-8 it was 56 µM (inactive); in the assay with M14, > 100 µM (inactive). The GI50 in the assay with LOX IMVI is > 100 µM (inactive); in the assay on HL-60, > 100 µM (inactive); with ACHN it was > 100 µM (inactive); with NCI/ADR-RES it was 90.4 µM (inactive); in the assay with SF-295, 34.2 µM (inactive); with DU-145, > 100 µM (inactive). For the same compound, the GI50 with SK-MEL-2 was 52.8 µM (inactive).

On to `COc1cc2c(cc1OC)C13CCN4CC5CCOC6CC(=O)N2C1C6C5CC43` (centres undefined), for which the GI50 with SW-620, in the assay on TK-10, with CAKI-1, with HOP-62, in the assay on COLO 205 and with MCF7 was > 100 µM (inactive) each time. Further, the GI50 with NCI-H23, with IGROV-1, in the assay on UACC-257, with NCI-H460, with OVCAR-8 and with M14 was > 100 µM (inactive) throughout. Besides, the GI50 in the assay on LOX IMVI, with HL-60, with ACHN, with NCI/ADR-RES, in the assay with SF-295 and in the assay on DU-145 was > 100 µM (inactive) in each case. The GI50 in the assay on SK-MEL-2 is > 100 µM (inactive).

In the case of `CNC(=S)c1nnsc1N`, the GI50 with SW-620 is > 100 µM (inactive); in the assay with TK-10 it was > 100 µM (inactive); in the assay with CAKI-1, > 100 µM (inactive); in the assay with HOP-62, > 100 µM (inactive); with COLO 205, 0.043 µM (active); in the assay with MCF7, 0.918 µM (active). Moreover, the GI50 with NCI-H23 was > 100 µM (inactive); in the assay with IGROV-1 it was 2.99 µM (inactive); with UACC-257 it was > 100 µM (inactive); in the assay on NCI-H460 it was 0.71 µM (active); in the assay on OVCAR-8 it was > 100 µM (inactive); with M14, > 100 µM (inactive). The GI50 in the assay with LOX IMVI is > 100 µM (inactive); with HL-60, 0.0115 µM (active); in the assay with ACHN it was > 100 µM (inactive); in the assay with NCI/ADR-RES, > 100 µM (inactive); in the assay with SF-295 it was > 100 µM (inactive); with DU-145 it was > 100 µM (inactive). Also, the GI50 in the assay on SK-MEL-2 is > 100 µM (inactive).

Turning to `Cc1cn2c(/C=C3/C(=O)Nc4ccccc43)c(C)nc2s1`, the GI50 with SW-620 was 0.504 µM (active); with TK-10, 3.78 µM (inactive); with CAKI-1 it was 3.07 µM (inactive); in the assay on HOP-62, 3.79 µM (inactive); in the assay on COLO 205, 0.433 µM (active); with MCF7 it was 0.547 µM (active). In addition, the GI50 in the assay with NCI-H23 was 4.19 µM (inactive); in the assay on IGROV-1, 0.634 µM (active); in the assay with UACC-257 it was 2.78 µM (inactive); in the assay with NCI-H460, 0.653 µM (active); with OVCAR-8, 3.54 µM (inactive); in the assay on M14, 0.991 µM (active). The GI50 in the assay with LOX IMVI is 3.46 µM (inactive); with HL-60, 0.321 µM (active); with ACHN, 6.07 µM (inactive); in the assay with NCI/ADR-RES, 2.39 µM (inactive); in the assay with SF-295 it was 0.652 µM (active); with DU-145, 3.89 µM (inactive). For the same compound, in the assay on SK-MEL-2, the GI50 was 1.32 µM (inactive).

For the compound `CC(C)NCC(O)c1cc(OCc2ccccc2)c(OCc2ccccc2)cc1NC(=O)CCC(=O)O` (centres undefined), the GI50 in the assay with SW-620 was 2.61 µM (inactive); in the assay with TK-10 it was 7.53 µM (inactive); with CAKI-1, 8.75 µM (inactive); in the assay with HOP-62 it was 13.7 µM (inactive); with COLO 205, 2.06 µM (inactive); in the assay on MCF7 it was 5.69 µM (inactive). For the same compound, the GI50 in the assay with NCI-H23 was 13.2 µM (inactive); in the assay with IGROV-1, 11.4 µM (inactive); in the assay with UACC-257, 13.4 µM (inactive); with NCI-H460, 1.85 µM (inactive); with OVCAR-8, 7.66 µM (inactive); in the assay with M14, 1.45 µM (inactive). Also, the GI50 was 1.57 µM (inactive) in the assay with LOX IMVI; 3.15 µM (inactive) in the assay with HL-60; 3.18 µM (inactive) in the assay on ACHN; 12.9 µM (inactive) with NCI/ADR-RES; 3.94 µM (inactive) in the assay with SF-295; 13 µM (inactive) in the assay on DU-145. In addition, the GI50 in the assay on SK-MEL-2 was 1.45 µM (inactive).

As for `CNC(=O)CCCNC(=O)CCCC(=O)OC`, the GI50 with SW-620, in the assay with TK-10, with CAKI-1, with HOP-62, with COLO 205 and in the assay on MCF7 was > 100 µM (inactive) each time. The GI50 with NCI-H23, in the assay on IGROV-1, in the assay with UACC-257, in the assay with NCI-H460, in the assay with OVCAR-8 and in the assay on M14 was > 100 µM (inactive) throughout. The GI50 with LOX IMVI, in the assay on HL-60, in the assay with ACHN, in the assay on NCI/ADR-RES, in the assay on SF-295 and in the assay on DU-145 was > 100 µM (inactive) each time. Moreover, in the assay on SK-MEL-2, the GI50 was > 100 µM (inactive).

With `Clc1ccc(-c2cc(-c3nc4ccccc4[nH]3)no2)cc1`, the GI50 in the assay on SW-620 was 22.4 µM (inactive); in the assay with TK-10, 21.9 µM (inactive); with CAKI-1, 18.3 µM (inactive); in the assay on HOP-62, 19.5 µM (inactive); in the assay on COLO 205, 20 µM (inactive); in the assay with MCF7, 15 µM (inactive). Also, the GI50 was 18.9 µM (inactive) in the assay with NCI-H23; 22.6 µM (inactive) in the assay on IGROV-1; 18.8 µM (inactive) in the assay with UACC-257; 16.9 µM (inactive) in the assay on NCI-H460; 33.8 µM (inactive) with OVCAR-8; 18.4 µM (inactive) in the assay with M14. Besides, the GI50 in the assay on LOX IMVI is 19.5 µM (inactive); in the assay on HL-60 it was 7.4 µM (inactive); in the assay on ACHN, 17.4 µM (inactive); in the assay on NCI/ADR-RES, 23.6 µM (inactive); with SF-295 it was 17.3 µM (inactive); in the assay on DU-145 it was 11.4 µM (inactive). Moreover, the GI50 in the assay on SK-MEL-2 was 18.7 µM (inactive).

As to `Cc1nn(C(=O)c2ccc(Cl)cc2)c2c1C(c1ccc(Cl)cc1)SC(=N)N2` (centres undefined), the GI50 with SW-620, in the assay on TK-10, in the assay with CAKI-1, with HOP-62, in the assay on COLO 205 and in the assay on MCF7 was > 10 µM (inactive) each time. In addition, the GI50 with NCI-H23, in the assay on IGROV-1, in the assay on UACC-257, in the assay on NCI-H460, with OVCAR-8 and with M14 was > 10 µM (inactive) each time. The GI50 in the assay with LOX IMVI, with HL-60, in the assay on ACHN, with NCI/ADR-RES, in the assay on SF-295 and with DU-145 was > 10 µM (inactive) in each case. The GI50 in the assay with SK-MEL-2 is > 10 µM (inactive).

`O=C(/C=C/c1ccccc1)C[C@@H](O)C[C@@H]1CC=CC(=O)O1`: the GI50 in the assay with SW-620 was 2.35 µM (inactive); in the assay on TK-10, 14.9 µM (inactive); with CAKI-1, 14.2 µM (inactive); with HOP-62, 16 µM (inactive); with COLO 205 it was 5.5 µM (inactive); in the assay with MCF7, 3.94 µM (inactive). The GI50 is 8.95 µM (inactive) in the assay on NCI-H23; 6.85 µM (inactive) in the assay with IGROV-1; 13.6 µM (inactive) in the assay with UACC-257; 16.3 µM (inactive) in the assay with NCI-H460; 3.32 µM (inactive) with OVCAR-8; 5.81 µM (inactive) with M14. Also, the GI50 was 1.95 µM (inactive) in the assay with LOX IMVI; 2.18 µM (inactive) in the assay on HL-60; 12.7 µM (inactive) in the assay on ACHN; 20.5 µM (inactive) with NCI/ADR-RES; 13.7 µM (inactive) in the assay on SF-295; 17.2 µM (inactive) in the assay with DU-145. For the same compound, in the assay with SK-MEL-2, the GI50 is 14.2 µM (inactive).

With `COc1cc(C(=O)O)ccc1OS(=O)(=O)O`, the GI50 in the assay on SW-620, in the assay on TK-10, in the assay with CAKI-1, in the assay with HOP-62, in the assay with COLO 205 and with MCF7 was > 100 µM (inactive) in each case. Moreover, the GI50 with NCI-H23, with IGROV-1, in the assay with UACC-257, with NCI-H460, in the assay on OVCAR-8 and in the assay with M14 was > 100 µM (inactive) throughout. In addition, the GI50 in the assay with LOX IMVI, in the assay with HL-60, in the assay with ACHN, with NCI/ADR-RES, with SF-295 and with DU-145 was > 100 µM (inactive) in each case. For the same compound, the GI50 in the assay on SK-MEL-2 is > 100 µM (inactive).

For `CC(=O)[C@]1(O)Cc2c(O)c3c(c(O)c2C(OC2OC(C)C(O)C(O)C2F)C1)C(=O)c1ccccc1C3=O` (some centres undefined), the GI50 is 0.0796 µM (active) with SW-620; 0.197 µM (active) in the assay on TK-10; 0.013 µM (active) in the assay on CAKI-1; < 0.0189 µM (active) with HOP-62; 0.259 µM (active) in the assay with COLO 205; < 0.01 µM (active) with MCF7. Further, the GI50 is 0.0371 µM (active) in the assay with NCI-H23; 0.0419 µM (active) in the assay with IGROV-1; 0.225 µM (active) with UACC-257; < 0.01 µM (active) in the assay on NCI-H460; 0.0238 µM (active) with OVCAR-8; 0.0951 µM (active) with M14. The GI50 with LOX IMVI was 0.0713 µM (active); in the assay with HL-60 it was < 0.01 µM (active); in the assay with ACHN, 0.0107 µM (active); in the assay with NCI/ADR-RES it was 0.318 µM (active); in the assay on SF-295, < 0.014 µM (active); in the assay with DU-145, 0.0502 µM (active). In addition, in the assay with SK-MEL-2, the GI50 is 0.828 µM (active).
